Molecules are shown by their SMILES.

The test deals with PD-1/PD-L1 (Homo sapiens (Human), UniProt Q9NZQ7). The test can be described thus: PD-1/PD-L1 Homogeneous Time-Resolved Fluorescence (HTRF) Binding Assay. To be noted: recombinant human PD-1 (3 nM) and PD-L1 (10 nM), 25° C., PBS pH 7.4. The method in brief:
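Fc-tagged human PD-1 (25-167, 3 nM) and His-tagged PD-L1 (19-238, 10 nM) preincubated with inhibitor 40 min in PBS pH 7.4, 0.05% Tween-20, 0.1% BSA, 1% DMSO, 25 °C. Binding detected by HTRF (Eu anti-IgG/APC anti-His, 665/620 nm) after 60 min; IC50 from percent control activity.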
(In general: In TR-FRET formats the signal depends on donor and acceptor labels being close together.)

Sequence of PD-1/PD-L1 (Q9NZQ7 19-238): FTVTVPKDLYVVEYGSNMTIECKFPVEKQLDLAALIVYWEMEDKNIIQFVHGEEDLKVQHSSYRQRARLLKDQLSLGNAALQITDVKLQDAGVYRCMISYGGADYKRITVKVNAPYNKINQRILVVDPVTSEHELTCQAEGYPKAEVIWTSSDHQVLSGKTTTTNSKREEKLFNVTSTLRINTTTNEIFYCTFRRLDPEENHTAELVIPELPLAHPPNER

Turning to `Cc1c(NC(=O)c2nc3c(n2C)CCN(C[C@H](C)O)C3)cccc1-c1cccc(-c2nc3cc(CN4CC[C@H](C(=O)O)C4)cc(C#N)c3o2)c1C` [Example 41, (S)-1-((7-cyano-2-(3′-(5-((S)-2-hydroxypropyl)-1-methyl-4,5,6,7-tetrahydro-1H-imidazo[4,5-c]pyridine-2-carboxamido)-2,2′-dimethylbiphenyl-3-yl)benzo[d]oxazol-5-yl)methyl)pyrrolidine-3-carboxylic acid], the IC50 (as a rule, the concentration that inhibits the measured activity by half) was at most 10 nM. Consider `Cc1c(Nc2nccc3cc(CN4CC[C@@H](O)C4)cnc23)cccc1-c1cccc(-c2nc3cc(CN4CC5(CC(C(=O)O)C5)C4)cc(C#N)c3o2)c1C` [Example 177, 2-((7-cyano-2-(3′-(3-(((R)-3-hydroxypyrrolidin-1-yl)methyl)-1,7-naphthyridin-8-ylamino)-2,2′-dimethylbiphenyl-3-yl)benzo[d]oxazol-5-yl)methyl)-2-azaspiro[3,3]heptane-6-carboxylic acid], for which the IC50 was at most 10 nM.

With `Cc1c(Nc2nccc3cc(CNC(C)(C)CO)cnc23)cccc1-c1cccc(-c2nc3cc(CN4CC[C@@](C)(C(=O)O)C4)cc(C#N)c3o2)c1C` [Example 198, (R)-1-((7-cyano-2-(3′-(3-((1-hydroxy-2-methylpropan-2-ylamino)methyl)-1,7-naphthyridin-8-ylamino)-2,2′-dimethylbiphenyl-3-yl)benzo[d]oxazol-5-yl)methyl)-3-methylpyrrolidine-3-carboxylic acid], the IC50 was at most 10 nM. The value for `Cc1c(-c2nc3cc(CN4CC[C@@H](C(=O)O)C4)cc(Cl)c3o2)cccc1-c1cccc(-c2nc3c(s2)CN(CCO)CC3)c1C` [Example 61, (R)-1-((7-chloro-2-(3′-(5-(2-hydroxyethyl)-4,5,6,7-tetrahydrothiazolo[5,4-c]pyridin-2-yl)-2,2′-dimethyl-[1,1′-biphenyl]-3-yl)benzo[d]oxazol-5-yl)methyl)pyrrolidine-3-carboxylic acid] was at most 10 nM; that for `Cc1c(-c2nc3c(o2)CN(C(=O)CN2CC[C@H](O)C2)C3)cccc1-c1cccc(-c2nc3cc(CN4CC[C@@H](C(=O)O)C4)cc(C#N)c3o2)c1C` [Example 128, (R)-1-((7-cyano-2-(3′-(5-(2-((S)-3-hydroxypyrrolidin-1-yl)acetyl)-5,6-dihydro-4H-pyrrolo[3,4-d]oxazol-2-yl)-2,2′-dimethyl-[1,1′-biphenyl]-3-yl)benzo[d]oxazol-5-yl)methyl)pyrrolidine-3-carboxylic acid] was at most 10 nM. As to `Cc1c(-c2nc3cc(CN4CC[C@@H](C(=O)O)C4)cc(C#N)c3o2)cccc1-c1cccc(-c2nc3c(s2)CN(C(=O)[C@@H]2CCCN2C)C3)c1C` [Example 107, (R)-1-((7-cyano-2-(2,2′-dimethyl-3′-(5-((8)-1-methylpyrrolidine-2-carbonyl)-5,6-dihydro-4H-pyrrolo[3,4-d]thiazol-2-yl)biphenyl-3-yl)benzo[d]oxazol-5-yl)methyl)pyrrolidine-3-carboxylic acid], the IC50 is at most 10 nM.

For `Cc1c(-c2nc3cc(CN4CC[C@@H](C(=O)NS(C)(=O)=O)C4)cc(C#N)c3o2)cccc1-c1cccc(-c2nc3c(s2)CN(C(C)C)CC3)c1C` [Example 238, (R)-1-((7-cyano-2-(3′-(5-isopropyl-4,5,6,7-tetrahydrothiazolo[5,4-c]pyridin-2-yl)-2,2′-dimethyl-[1,1′-biphenyl]-3-yl)benzo[d]oxazol-5-yl)methyl)-N-(methylsulfonyl)pyrrolidine-3-carboxamide], the IC50 is at most 10 nM. Regarding `Cc1c(-c2nc3cc(CN4CC[C@@H](C(=O)O)C4)cc(C#N)c3o2)cccc1-c1cccc(-n2cc3c(n2)CN(C(C)C)CC3)c1Cl` [Example 87, (R)-1-((2-(2′-chloro-3′-(6-isopropyl-4,5,6,7-tetrahydro-2H-pyrazolo[3,4-c]pyridin-2-yl)-2-methylbiphenyl-3-yl)-7-cyanobenzo[d]oxazol-5-yl)methyl)pyrrolidine-3-carboxylic acid], the IC50 is at most 10 nM. Turning to `Cc1c(-c2nc3cc(CN4CCCC[C@H]4C(=O)O)c(OCC#N)cc3o2)cccc1-c1cccc(-c2nc3cc(CN4CCCC[C@H]4C(=O)O)c(OCC#N)cc3o2)c1C` [Example 7, (2S,2′S)-1,1′-(((2,2′-dimethyl-[1,1′-biphenyl]-3,3′-diyl)bis(6-(cyanomethoxy)benzo[d]oxazole-2,5-diyl))bis(methylene))bis(piperidine-2-carboxylic acid)], the IC50 was at most 10 nM. The value for `Cc1c(-c2nc3cc(CN4CC[C@@H](C(=O)O)C4)cc(C#N)c3o2)cccc1-c1cccc(Nc2nccc3cc(CN4CC[C@H](O)C4)cnc23)c1Cl` [Example 30, (R)-1-((2-(2′-chloro-3′-(3-(((S)-3-hydroxypyrrolidin-1-yl)methyl)-1,7-naphthyridin-8-ylamino)-2-methylbiphenyl-3-yl)-7-cyanobenzo[d]oxazol-5-yl)methyl)pyrrolidine-3-carboxylic acid] was at most 10 nM; that for `Cc1c(-c2nc3cc(CN4CC[C@@H](C(=O)O)C4)cc(C#N)c3o2)cccc1-c1cccc(-c2nc3c(s2)CN(C(=O)CN2CCC2)C3)c1C` [Example 113, (R)-1-((2-(3′-(5-(2-(azetidin-1-yl)acetyl)-5,6-dihydro-4H-pyrrolo[3,4-d]thiazol-2-yl)-2,2′-dimethylbiphenyl-3-yl)-7-cyanobenzo[d]oxazol-5-yl)methyl)pyrrolidine-3-carboxylic acid] was at most 10 nM. Turning to `Cc1c(-c2nc3cc(CN4CC[C@@](C)(C(=O)O)C4)cc(C#N)c3o2)cccc1-c1cccc(NC(=O)c2nc3c(n2C)CC(C)N(C)C3)c1Cl` (stereo partly drawn) [Example 161, (3R)-1-((2-(2′-chloro-2-methyl-3′-(1,5,6-trimethyl-4,5,6,7-tetrahydro-1H-imidazo[4,5-c]pyridine-2-carboxamido)biphenyl-3-yl)-7-cyanobenzo[d]oxazol-5-yl)methyl)-3-methylpyrrolidine-3-carboxylic acid], the IC50 was at most 10 nM. The value for `Cc1c(-c2nc3cc(CN4CC[C@H](O)C4)cc(Cl)c3o2)cccc1-c1cccc(-c2nc3cc(CN4CC[C@H](C(=O)O)C4)cc(Cl)c3o2)c1C` [Example 10, (S)-1-((7-chloro-2-(3′-(7-chloro-5-(((S)-3-hydroxypyrrolidin-1-yl)methyl)benzo[d]oxazol-2-yl)-2,2′-dimethylbiphenyl-3-yl)benzo[d]oxazol-5-yl)methyl)pyrrolidine-3-carboxylic acid] was at most 10 nM; that for `Cc1c(-c2nc3cc(CN4CC[C@@H](C(=O)O)C4)cc(Cl)c3o2)cccc1-c1cccc(-c2nc3c(s2)CN(C(C)C)CC3)c1C` [Example 59, (R)-1-((7-chloro-2-(3′-(5-isopropyl-4,5,6,7-tetrahydrothiazolo[5,4-c]pyridin-2-yl)-2,2′-dimethyl-[1,1′-biphenyl]-3-yl)benzo[d]oxazol-5-yl)methyl)pyrrolidine-3-carboxylic acid] was at most 10 nM; that for `Cc1c(-c2nc3cc(CN4CC[C@@H](C(=O)O)C4)cc(C#N)c3o2)cccc1-c1cccc(-c2nc3c(s2)CN(C(=O)CN2CC[C@](C)(O)C2)C3)c1C` [Example 115, (R)-1-((7-cyano-2-(3′-(5-(2-((S)-3-hydroxy-3-methylpyrrolidin-1-yl)acetyl)-5,6-dihydro-4H-pyrrolo[3,4-d]thiazol-2-yl)-2,2′-dimethylbiphenyl-3-yl)benzo[d]oxazol-5-yl)methyl)pyrrolidine-3-carboxylic acid] was at most 10 nM.

`Cc1c(-c2nc3cc(CN4CC[C@@H](C(=O)O)C4)cc(C#N)c3o2)cccc1-c1cccc(-c2nc3c(s2)CN(C(=O)CN2CC[C@@](C)(O)C2)C3)c1C` [Example 116, (R)-1-((7-cyano-2-(3′-(5-(2-((R)-3-hydroxy-3-methylpyrrolidin-1-yl)acetyl)-5,6-dihydro-4H-pyrrolo[3,4-d]thiazol-2-yl)-2,2′-dimethylbiphenyl-3-yl)benzo[d]oxazol-5-yl)methyl)pyrrolidine-3-carboxylic acid]: the IC50 was at most 10 nM.

With `Cc1c(-c2nc3c(o2)CN(C(=O)CN2CC(C)(O)C2)C3)cccc1-c1cccc(-c2nc3cc(CN4CC[C@@H](C(=O)O)C4)cc(C#N)c3o2)c1C` [Example 129, (R)-1-((7-cyano-2-(3′-(5-(2-(3-hydroxy-3-methylazetidin-1-yl)acetyl)-5,6-dihydro-4H-pyrrolo[3,4-d]oxazol-2-yl)-2,2′-dimethyl-[1,1′-biphenyl]-3-yl)benzo[d]oxazol-5-yl)methyl)pyrrolidine-3-carboxylic acid], the IC50 is at most 10 nM.

On to `Cc1c(Nc2ncnc3cc(CN4CCCC4)cnc23)cccc1-c1cccc(-c2nc3cc(CN4CC[C@@H](C(=O)O)C4)cc(C#N)c3o2)c1C` [Example 209, (R)-1-((7-cyano-2-(2,2′-dimethyl-3′-(7-(pyrrolidin-1-ylmethyl)pyrido[3,2-d]pyrimidin-4-ylamino)biphenyl-3-yl)benzo[d]oxazol-5-yl)methyl)pyrrolidine-3-carboxylic acid], for which the 50% inhibitory concentration (IC50) was at most 10 nM.

Regarding `Cc1c(-c2nc3cc(CN4CC[C@H](C(=O)O)C4)cc(C#N)c3o2)cccc1-c1cccc(NC(=O)c2nc3c(n2C)CCN(CCO)C3)c1Cl` [Example 93, (S)-1-((2-(2′-chloro-3′-(5-(2-hydroxyethyl)-1-methyl-4,5,6,7-tetrahydro-1H-imidazo[4,5-c]pyridine-2-carboxamido)-2-methylbiphenyl-3-yl)-7-cyanobenzo[d]oxazol-5-yl)methyl)pyrrolidine-3-carboxylic acid], the IC50 is at most 10 nM. For the molecule `Cc1c(-c2nc3cc(CN4CC[C@@](C)(C(=O)O)C4)cc(C#N)c3o2)cccc1-c1cccc(-c2nc3c(s2)CN(C(=O)CN2CC(O)C2)C3)c1C` [Example 227, (R)-1-((7-cyano-2-(3′-(5-(2-(3-hydroxyazetidin-1-yl)acetyl)-5,6-dihydro-4H-pyrrolo[3,4-d]thiazol-2-yl)-2,2′-dimethylbiphenyl-3-yl)benzo[d]oxazol-5-yl)methyl)-3-methylpyrrolidine-3-carboxylic acid], the IC50 is at most 10 nM.
